Data taken from PubChem BioAssay AID206 (DTP/NCI, 2004).
“And” between values parts separate entries of the source, which are not always exact repeats. Equal entries are not always repeated. Inconclusive results are not listed.

System: nude mice, HT29 intrarenal xenograft, tumor weight T/C
Assay: NCI In Vivo Anticancer Drug Screen. Data for tumor model HT29;CX-1 Human Adenocarcinoma (MER+) (intrarenal inoculation) in NU/NU Swiss (nude) mice
Details: endpoint: mean tumor weight change, higher = larger tumour
Summary of the method: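 Endpoint measured as tumor size or survival; ratio reported is treated group over vehicle controls.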

[1] = dose: 18.75 mg/kg/injection, schedule: Q04DX004 (sc), vehicle: saline
[2] = dose: 300.0 mg/kg/injection, schedule: Q04DX004 (sc), vehicle: saline with Tween-80
[3] = dose: 600.0 mg/kg/injection, schedule: Q04DX004 (sc), vehicle: saline with Tween-80
[4] = dose: 1200.0 mg/kg/injection, schedule: Q04DX004 (sc), vehicle: saline with Tween-80
[5] = dose: 100.0 mg/kg/injection, schedule: Q04DX004 (sc), vehicle: saline with Tween-80
[6] = dose: 200.0 mg/kg/injection, schedule: Q04DX004 (sc), vehicle: saline with Tween-80
[7] = dose: 400.0 mg/kg/injection, schedule: Q04DX004 (sc), vehicle: saline with Tween-80
[8] = dose: 150.0 mg/kg/injection, schedule: Q04DX004 (sc), vehicle: saline
[9] = dose: 50.0 mg/kg/injection, schedule: Q01DX010 (sc), vehicle: saline with Tween-80
[10] = dose: 100.0 mg/kg/injection, schedule: Q01DX010 (sc), vehicle: saline with Tween-80
[11] = dose: 150.0 mg/kg/injection, schedule: Q04DX004 (sc), vehicle: saline with Tween-80

CC[C@H]1CN2CCc3cc(OC)c(OC)cc3[C@@H]2C[C@@H]1C[C@H]1NCCc2cc(OC)c(OC)cc21
T/C (dose: 1.0 mg/kg/injection, schedule: Q01DX010 (sc), vehicle: saline): 92 % of control | T/C (dose: 2.0 mg/kg/injection, schedule: Q01DX010 (sc), vehicle: saline): 166 % of control | T/C (dose: 4.0 mg/kg/injection, schedule: Q01DX010 (sc), vehicle: saline): 90 % of control

COC(=O)C12OCC34C(CC5C(C)=CC(=O)C(O)C5(C)C3C(O)C1O)OC(=O)C(OC(=O)CC(C)C)C24 (centres undefined)
T/C (dose: 1.5 mg/kg/injection, schedule: Q04DX004 (sc), vehicle: saline + alcohol): 59 % of control | T/C (dose: 3.0 mg/kg/injection, schedule: Q04DX004 (sc), vehicle: saline + alcohol): 76 % of control

Nc1ccc2nc3ccc(N)cc3[n+](-c3ccccc3)c2c1
T/C (dose: 9.0 mg/kg/injection, schedule: Q04DX004 (sc), vehicle: saline): 80 % of control | T/C (dose: 18.0 mg/kg/injection, schedule: Q04DX004 (sc), vehicle: saline): 62 % of control | T/C (dose: 36.0 mg/kg/injection, schedule: Q04DX004 (sc), vehicle: saline): 96 % of control | T/C (dose: 72.0 mg/kg/injection, schedule: Q04DX004 (sc), vehicle: saline): 52 % of control

Cc1ncc(CNC(=O)N(CCCl)N=O)c(N)n1
T/C (dose: 9.38 mg/kg/injection, schedule: Q04DX004 (sc), vehicle: saline): 55 % of control | T/C [1]: 39 % of control

[CH3][Sn]([CH3])([Cl])[S]CCN
T/C (dose: 18.75 mg/kg/injection, schedule: Q04DX004 (sc), vehicle: suspension in saline): 92 % of control | T/C (dose: 37.5 mg/kg/injection, schedule: Q04DX004 (sc), vehicle: suspension in saline): 65 % of control | T/C (dose: 75.0 mg/kg/injection, schedule: Q04DX004 (sc), vehicle: suspension in saline): 40 % of control

Cc1ccc(NC(=O)Oc2ccc(Br)cc2Br)c([N+](=O)[O-])c1
T/C [2]: 35 % of control | T/C [3]: 52 % of control | T/C [4]: 69 % of control

Cc1cc(N2C(=O)CCSC2=S)ccc1Cl
T/C (dose: 75.0 mg/kg/injection, schedule: Q04DX004 (sc), vehicle: Klucel (hydroxypropylcellulose) (HPC)): 37 % of control | T/C (dose: 150.0 mg/kg/injection, schedule: Q04DX004 (sc), vehicle: Klucel (hydroxypropylcellulose) (HPC)): 55 % of control | T/C (dose: 300.0 mg/kg/injection, schedule: Q04DX004 (sc), vehicle: Klucel (hydroxypropylcellulose) (HPC)): 30 % of control

CC1=C(/C=C/C(C)=C/C=C/C(C)=C/CO)C(C)(C)CCC1
T/C [5]: 82 % of control | T/C [6]: 94 % of control | T/C [7]: 96 % of control | T/C (dose: 800.0 mg/kg/injection, schedule: Q04DX004 (sc), vehicle: saline with Tween-80): 121 % of control

COC(=O)c1ccoc1
T/C [8]: 116 % of control

OCCN1CCN(CC/C=C2/c3ccccc3Sc3ccc(Cl)cc32)CC1
T/C (dose: 25.0 mg/kg/injection, schedule: Q04DX004 (sc), vehicle: saline): 160 % of control | T/C (dose: 50.0 mg/kg/injection, schedule: Q04DX004 (sc), vehicle: saline): 87 % of control | T/C (dose: 100.0 mg/kg/injection, schedule: Q04DX004 (sc), vehicle: saline): 82 % of control | T/C (dose: 200.0 mg/kg/injection, schedule: Q04DX004 (sc), vehicle: saline): 40 % of control

O=C1NC(c2ccccc2)N=C2Oc3ccccc3C=C12 (centres undefined)
T/C [9]: 115 % of control | T/C [10]: 155 % of control | T/C (dose: 200.0 mg/kg/injection, schedule: Q01DX010 (sc), vehicle: saline with Tween-80): 77 % of control | T/C (dose: 400.0 mg/kg/injection, schedule: Q01DX010 (sc), vehicle: saline with Tween-80): 54 % of control

O=C(Nc1cccc(Cl)c1)ON1C(=O)C2C(C1=O)C1(Cl)C(Cl)C(Cl)C2(Cl)C1(Cl)Cl (centres undefined)
T/C [11]: 90 % of control | T/C [3]: 169 % of control | T/C [4]: 89 % of control

Clc1ccc(C2SC=Cc3ccccc32)cc1 (centres undefined)
T/C (dose: 600.0 mg/kg/injection, schedule: Q04DX004 (sc), vehicle: Klucel (hydroxypropylcellulose) (HPC)): 48 % of control

O=C(Nc1nncs1)c1cccs1
T/C (dose: 50.0 mg/kg/injection, schedule: Q04DX004 (sc), vehicle: saline with Tween-80): 61 % of control | T/C [5]: 93 % of control | T/C [6]: 72 % of control | T/C [2]: 106 % of control | T/C [7]: 95 % of control | T/C [3]: 121 % of control | T/C [4]: 110 % of control

CCC1CN2C(=N1)c1ccccc1-c1cc(Cl)ccc12 (centres undefined)
T/C (dose: 12.5 mg/kg/injection, schedule: Q01DX010 (sc), vehicle: saline with Tween-80): 74 % of control | T/C (dose: 25.0 mg/kg/injection, schedule: Q01DX010 (sc), vehicle: saline with Tween-80): 37 % of control | T/C [9]: 60 % of control | T/C [10]: 89 % of control

C/C=C(\C)c1cc(=O)c2c(C)cc3c(c2o1)C(=O)c1c(O)c(C2CC(C)(N(C)C)C(O)C(C)O2)cc(C2CC(N(C)C)C(O)C(C)O2)c1C3=O (centres undefined)
T/C (dose: 0.5 mg/kg/injection, schedule: Q04DX004 (sc), vehicle: saline): 78 % of control | T/C (dose: 2.0 mg/kg/injection, schedule: Q04DX004 (sc), vehicle: saline): 112 % of control | T/C (dose: 4.0 mg/kg/injection, schedule: Q04DX004 (sc), vehicle: saline): 82 % of control | T/C (dose: 4.0 mg/kg/injection, schedule: Q04DX004 (sc), vehicle: suspension in saline): 104 % of control | T/C (dose: 8.0 mg/kg/injection, schedule: Q04DX004 (sc), vehicle: suspension in saline): 64 % of control | T/C (dose: 16.0 mg/kg/injection, schedule: Q04DX004 (sc), vehicle: suspension in saline): 90 % of control

NC(N)=NOCC[C@@H](N)C(=O)O
T/C [8]: 108 % of control | T/C (dose: 300.0 mg/kg/injection, schedule: Q04DX004 (sc), vehicle: saline): 75 % of control | T/C (dose: 600.0 mg/kg/injection, schedule: Q04DX004 (sc), vehicle: saline): 76 % of control | T/C (dose: 1200.0 mg/kg/injection, schedule: Q04DX004 (sc), vehicle: saline): 62 % of control

CSCS(=O)C[C@H](CO)NC(=O)/C=C/c1c(C)[nH]c(=O)[nH]c1=O (some centres undefined)
T/C (dose: 0.75 mg/kg/injection, schedule: Q04DX004 (sc), vehicle: saline): 111 % of control | T/C (dose: 1.5 mg/kg/injection, schedule: Q04DX004 (sc), vehicle: saline): 81 % of control

Cn1c(=O)[nH]c2nncnc2c1=O
T/C (dose: 15.0 mg/kg/injection, schedule: Q04DX004 (sc), vehicle: water): 79 % of control and 101 % of control | T/C (dose: 60.0 mg/kg/injection, schedule: Q04DX004 (sc), vehicle: water): 78 % of control and 86 % of control | T/C (dose: 120.0 mg/kg/injection, schedule: Q04DX004 (sc), vehicle: water): 19 % of control

COc1ccc([I+]c2cccc(Cl)c2)cc1Cl
T/C (dose: 37.5 mg/kg/injection, schedule: Q04DX004 (sc), vehicle: saline with Tween-80): 67 % of control | T/C (dose: 75.0 mg/kg/injection, schedule: Q04DX004 (sc), vehicle: saline with Tween-80): 48 % of control | T/C [11]: 58 % of control | T/C [2]: 39 % of control | T/C [3]: 64 % of control

COc1cc2c(c(OC)c1OC)-c1c(cc3c(c1OC)OCO3)CC(C)C(C)(O)C2OC(=O)c1ccccc1 (centres undefined)
T/C (dose: 75.0 mg/kg/injection, schedule: Q04DX004 (sc), vehicle: saline + alcohol): 63 % of control

C[PH+](C)C.C[PH+](C)C.[Au]
T/C (dose: 2.5 mg/kg/injection, schedule: Q04DX004 (sc), vehicle: saline): 108 % of control | T/C (dose: 20.0 mg/kg/injection, schedule: Q04DX004 (sc), vehicle: saline): 42 % of control and 65 % of control

[Cl][Mn][Cl]
T/C [1]: 182 % of control | T/C (dose: 75.0 mg/kg/injection, schedule: Q04DX004 (sc), vehicle: saline): 171 % of control | T/C [8]: 121 % of control
